Experimental data published in ChEMBL document CHEMBL1148794, “Structure-activity relationship of a series of inhibitors of monoacylglycerol hydrolysis--comparison with effects upon fatty acid amide hydrolase” (J Med Chem, 2007).

Key:
[1] = molecular target: T1, Monoglyceride lipase (Rattus norvegicus) (UniProt Q8R431); test: (§1) Inhibition of MGL in rat cerebellum cytosolic fractions assessed as [3H]2-oleoylglycerol hydrolysis; format: tissue-based
T1 sequence (whole entry): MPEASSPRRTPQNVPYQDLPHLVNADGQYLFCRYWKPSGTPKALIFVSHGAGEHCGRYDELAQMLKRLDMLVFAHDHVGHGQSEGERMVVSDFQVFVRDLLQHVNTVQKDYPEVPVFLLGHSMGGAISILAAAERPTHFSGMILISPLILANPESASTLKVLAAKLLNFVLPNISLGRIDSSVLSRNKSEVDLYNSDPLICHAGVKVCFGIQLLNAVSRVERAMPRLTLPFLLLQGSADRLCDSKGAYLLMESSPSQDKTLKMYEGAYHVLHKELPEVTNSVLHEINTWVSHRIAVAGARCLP

[2] = molecular target: T2, Monoglyceride lipase (Rattus norvegicus, UniProt Q8R431); test: as §1; format: tissue-based
T2 sequence (Q8R431 whole entry): T1 sequence (whole entry)

[3] = molecular target: T1, Monoglyceride lipase (Rattus norvegicus); test: (§2) Inhibition of MGL in rat cerebellum membrane fractions assessed as [3H]2-oleoylglycerol hydrolysis; format: cell membranes
[4] = molecular target: T2, Monoglyceride lipase; test: as §2; format: cell membranes
[5] = molecular target: T1, Monoglyceride lipase (Rattus norvegicus); test: Inhibition of MGL in rat cerebellum cytosolic fractions assessed as [3H]2-oleoylglycerol hydrolysis at 100 uM; format: tissue-based
[6] = molecular target: T3, Fatty-acid amide hydrolase 1 (Rattus norvegicus) (UniProt P97612); test: (§3) Inhibition of FAAH in rat cerebellum membranes assessed as [3H]anandamide hydrolysis; format: cell membranes; settings: Membrane
T3 sequence (whole entry): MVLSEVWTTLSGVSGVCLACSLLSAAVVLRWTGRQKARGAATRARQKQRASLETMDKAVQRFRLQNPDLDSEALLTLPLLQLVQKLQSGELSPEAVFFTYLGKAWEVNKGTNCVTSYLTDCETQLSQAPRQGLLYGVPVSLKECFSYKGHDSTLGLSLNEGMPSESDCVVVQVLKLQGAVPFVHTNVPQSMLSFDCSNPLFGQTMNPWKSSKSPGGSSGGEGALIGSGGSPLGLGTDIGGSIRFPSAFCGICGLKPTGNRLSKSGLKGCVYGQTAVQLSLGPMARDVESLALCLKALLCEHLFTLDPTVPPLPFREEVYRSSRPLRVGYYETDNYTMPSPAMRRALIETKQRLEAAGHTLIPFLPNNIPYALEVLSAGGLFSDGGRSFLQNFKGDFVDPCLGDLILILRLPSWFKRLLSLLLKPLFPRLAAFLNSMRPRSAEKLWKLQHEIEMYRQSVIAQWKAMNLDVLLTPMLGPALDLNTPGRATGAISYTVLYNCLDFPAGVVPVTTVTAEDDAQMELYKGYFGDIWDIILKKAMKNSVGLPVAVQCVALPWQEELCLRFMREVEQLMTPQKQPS

[7] = molecular target: T4, Fatty-acid amide hydrolase 1 (Rattus norvegicus, UniProt P97612); test: as §3; format: cell membranes, Membrane
T4 sequence (P97612 whole entry): T3 sequence (whole entry)

[8] = molecular target: T1, Monoglyceride lipase (Rattus norvegicus); test: Inhibition of MGL in rat cerebellum membrane fractions assessed as [3H]2-oleoylglycerol hydrolysis at 100 uM; format: cell membranes
[9] = molecular target: T3, Fatty-acid amide hydrolase 1 (Rattus norvegicus); test: Inhibition of FAAH in rat cerebellum membranes assessed as [3H]anandamide hydrolysis at 100 uM; format: cell membranes; settings: Membrane

SMILES: CCCCCC/C=C\CCCCCCCC(=O)OCC1CO1 (racemic)
- pI50 (-log I50, M) [1]: 4.87
- IC50 [2]: 13 µM
- Log I50 [3]: 4.55
- IC50 [4]: 28 µM
- inhibition [5]: 84%
- pI50 (-log10 of IC50 in M) [6]: 5.09
- IC50 [7]: 8.2 µM

SMILES: CC/C=C\C/C=C\C/C=C\CCCCCCCC(=O)OCC1CCCCO1 (racemic)
- pI50 (-log I50, M) [1]: 4.64
- IC50 [2]: 23 µM
- Log I50 [3]: < 4
- inhibition [8]: 33%
- pI50 (-log10 of IC50 in M) [6]: 4.73
- IC50 [7]: 19 µM

SMILES: CCCCCCCC/C=C\CCCCCCCC(=O)OCC1CCCCO1 (racemic)
- pI50 (-log I50, M) [1]: < 4
- Log I50 [3]: < 4
- inhibition [5]: 12%
- inhibition [8]: 35%
- pI50 (-log10 of IC50 in M) [6]: 4.53
- IC50 [7]: 29 µM

SMILES: CCCCCC/C=C\CCCCCCCC(=O)OCC1CCCCO1 (racemic)
- pI50 (-log I50, M) [1]: < 4
- Log I50 [3]: < 4
- inhibition [5]: 42%
- inhibition [8]: 36%
- pI50 (-log10 of IC50 in M) [6]: 5
- IC50 [7]: 10 µM
- inhibition [9]: 82%

SMILES: O=C(OCC1CO1)c1ccc(-c2ccccc2)cc1 (racemic)
- pI50 (-log I50, M) [1]: < 4
- Log I50 [3]: < 4
- inhibition [5]: 43%
- inhibition [8]: 9%
- pI50 (-log10 of IC50 in M) [6]: 4.45
- IC50 [7]: 35 µM

SMILES: O=C(OCC1CCCCO1)c1ccccc1-c1ccccc1 (racemic)
- pI50 (-log I50, M) [1]: < 4
- Log I50 [3]: < 4
- inhibition [5]: 38%
- inhibition [8]: 47%
- pI50 (-log10 of IC50 in M) [6]: 4.37
- IC50 [7]: 43 µM

SMILES: O=C(OCC1CCCCO1)c1cccc(-c2ccccc2)c1 (racemic)
- pI50 (-log I50, M) [1]: < 4
- Log I50 [3]: < 4
- inhibition [5]: 36%
- inhibition [8]: 49%
- pI50 (-log10 of IC50 in M) [6]: 4.75
- IC50 [7]: 18 µM

SMILES: O=C(OCC1CCCCO1)c1ccc(-c2ccccc2)cc1 (racemic)
- pI50 (-log I50, M) [1]: < 4
- Log I50 [3]: 4.1
- IC50 [4]: 80 µM
- inhibition [5]: 43%
- pI50 (-log10 of IC50 in M) [6]: 4.49
- IC50 [7]: 32 µM

SMILES: O=C(OCC1CCCCO1)c1ccccc1 (racemic)
- pI50 (-log I50, M) [1]: 5.5
- IC50 [2]: 3 µM
- Log I50 [3]: < 4
- inhibition [5]: 53%
- inhibition [8]: 24%
- pI50 (-log10 of IC50 in M) [6]: 4.28
- IC50 [7]: 53 µM

SMILES: CCCCC/C=C\C/C=C\C/C=C\C/C=C\CCCC(=O)NCC1COC(C)(C)O1 (racemic)
- pI50 (-log I50, M) [1]: 4.8
- IC50 [2]: 15 µM
- Log I50 [3]: < 4
- inhibition [5]: 71%
- inhibition [8]: 45%
- pI50 (-log10 of IC50 in M) [6]: 4.05
- IC50 [7]: 90 µM

SMILES: CCCCC/C=C\C/C=C\C/C=C\C/C=C\CCCC(=O)OCC1CO1 (racemic)
- Log I50 [3]: 4.72
- IC50 [4]: 19 µM
- IC50 [7]: 12 µM

SMILES: O=C(OCC1CO1)c1cccc(-c2ccccc2)c1 (racemic)
- pI50 (-log I50, M) [1]: < 4
- Log I50 [3]: < 4
- inhibition [5]: 40%
- inhibition [8]: 19%
- pI50 (-log10 of IC50 in M) [6]: 4.22
- IC50 [7]: 61 µM

SMILES: CC/C=C\C/C=C\C/C=C\CCCCCCCC(=O)OCC1CO1 (racemic)
- pI50 (-log I50, M) [1]: 4.97
- IC50 [2]: 11 µM
- Log I50 [3]: 4.3
- IC50 [4]: 50 µM
- pI50 (-log10 of IC50 in M) [6]: 5.8
- IC50 [7]: 1.6 µM

SMILES: CCCCC/C=C\C/C=C\CCCCCCCC(=O)OCC1CCCCO1 (racemic)
- pI50 (-log I50, M) [1]: 4.1
- IC50 [2]: 73 µM
- Log I50 [3]: < 4
- inhibition [8]: 38%
- pI50 (-log10 of IC50 in M) [6]: 5.13
- IC50 [7]: 7.5 µM

SMILES: O=C(OCC1CO1)c1ccccc1 (racemic)
- pI50 (-log I50, M) [1]: < 4
- Log I50 [3]: < 4
- inhibition [5]: 14%
- inhibition [8]: 0.2%
- pI50 (-log10 of IC50 in M) [6]: < 4
- inhibition [9]: 19%

SMILES: O=C(OCC1CO1)c1ccccc1-c1ccccc1 (racemic)
- pI50 (-log I50, M) [1]: < 4
- Log I50 [3]: < 4
- inhibition [5]: 29%
- inhibition [8]: 18%
- pI50 (-log10 of IC50 in M) [6]: < 4
- inhibition [9]: 5%
